{"source": "patent US6489307B1", "about": "“Antisense compositions targeted to β1-adrenoceptor-specific mRNA and methods of use” (University of Florida, priority 1998, dated 2002)", "key": {"[1]": {"test_system": "isolated perfused SHR hearts", "assay": "Isolated perfused SHR hearts (Langendorff), response to isoproterenol", "type": "in vivo, rat (SHR)", "details": "48 hr after 1 mg/kg; vs inverted ODN", "method": "48 hr after injection of 1 mg/kg β1-AS-ODN (n=9) or inverted ODN (n=6), SHRs were anesthetized and killed. Hearts were quickly removed and perfused via the aorta with oxygenated Krebs buffer (118 mmol/L NaCl, 18.75 mmol/L NaHCO3 1.2 mmol/L KH2PO4, 4.7 mmol/L KCl, 1.2 mmol/L MgSO4, 1.25 mmol/L CaCl2, 11.1 mmol/L glucose, and 0.01 mmol/L EDTA) at a constant flow of 7.0 mL/min. at 36° C. Coronary perfusion pressure was measured via a catheter placed proximal to the aorta and connected to a pressure transducer (Gould Staham P23ID, Eastlake, Ohio). A latex balloon filled with water and connected to the pressure transducer was inserted into the left ventricle through the left atrium to measure left ventricular end-diastolic pressure (LVEDP), left ventricular systolic pressure (LVSP), and developed left ventricular pressure (dLVP) (dLVP=LVSP−LVEDP). LVEDP during equilibration was set at 5 to 7 mm Hg. Coronary perfusion pressure, LVEDP, and LVSP were recorded continuously on a 4-channel recorder (Astro-Med, West Warwick, R.I.). […]\nForty-eight hr after injection of 1 mg/kg β1-AS-ODN (n=9) or inverted-ODN (n=6), SHR were anesthetized and sacrificed. […] Coronary perfusion pressure (CPP) was measured via a catheter placed proximal to the aorta and connected to a pressure transducer (Gould Statham P23ID). […] CPP, LVEDP and LVSP were continuously recorded on a 4-channel recorder (Astro-Med). […]"}, "plasma Ang II": {"test_system": "plasma Ang II", "assay": "Plasma Ang II radioimmunoassay", "type": "in vivo, rat (SHR)", "experimental": "Plasma Ang II levels were measured by radioimmunoassay as previously described (Phillips and Kimura, 1988)."}, "β2-AR": {"test_system": "β2-AR", "assay": "β-AR density in myocardium after ischemia-reperfusion (binding assay)", "design": "species or system Sprague-Dawley rats", "details": "rat, in vivo", "method": "Membrane protein was prepared from left ventricles as previously described (Baker and Pitha, 1982). For saturation studies, 100 μg membrane protein was incubated in triplicate with ^125I-(−)iodocyanopindolol (I-CYP, NEN Life Science, 6.25-100 pM) in a total volume of 250 μl containing 50 mM Tris-HCl (pH 7.4), 5 mM MgCl2 at 36° C. for 60 min. The nonspecific and β2-adrenoceptor binding were determined in the presence of 1 μM (±)-alprenolol and […] (RBI), respectively. Then the reaction mixture was passed through Whatman GF/B glass filter using Brandel harvester and the radioactivity was counted for one min."}, "β1-AR protein": {"test_system": "β1-AR protein", "assay": "Western blot of β1-AR protein in myocardium", "type": "in vivo, Sprague-Dawley rats", "details": "Western analysis", "method": "Myocardial tissues were homogenized and lysed in boiling lysis buffer (1% SDS, 0.1% Triton X-100®, and 10 mmol/L Tris-HCl, pH 7.4) and centrifuged at 10,000 RPM for 30 minutes at 4° C. The lysate protein from myocardial tissues (20 μg/lane) was separated by 8% SDS-PAGE using a Bio-Rad Mini-Protean cell, transferred to nitrocellulose membrane (Amersham). After incubation in blocking solution (4% non-fat milk, Sigma), membranes were incubated with 1:1000 dilation primary antibody (polycolonal antibody to β1-AR, Santa Cruz Biotechnology) for overnight at 4° C. Membranes were washed and incubated with 1:2000 dilution second antibody (Amersham) for one hr. The membranes were detected with the ECL system, as described previously (Yang et al, 1998; Li et al., 1999)."}, "[2]": {"assay": "Liver transaminases in plasma after repeated injections", "type": "in vivo, rat (SHR)", "details": "for ALT / AST: after repeated administration", "method": "Safety profiles including liver transaminases, hematology, immune response and tissue pathology were investigated during three repeated injections of β1-AS-ODNs for extended periods of time.\nAlanine aminotransferase (ALT) and aspartate aminotransferase (AST) are routinely used as a clinical index for liver function. Their levels increase substantially upon liver damage. SHR were treated with three repeated injections of β1-AS-ODN."}, "β1-ARs": {"biological_target": "T1, β1-ARs (Rattus norvegicus, UniProt P18090)", "T1 construct": "membranes were prepared from heart ventricles as previously described; from tissue; host or cells: heart ventricles of SHR", "T1 sequence (P18090 whole entry)": "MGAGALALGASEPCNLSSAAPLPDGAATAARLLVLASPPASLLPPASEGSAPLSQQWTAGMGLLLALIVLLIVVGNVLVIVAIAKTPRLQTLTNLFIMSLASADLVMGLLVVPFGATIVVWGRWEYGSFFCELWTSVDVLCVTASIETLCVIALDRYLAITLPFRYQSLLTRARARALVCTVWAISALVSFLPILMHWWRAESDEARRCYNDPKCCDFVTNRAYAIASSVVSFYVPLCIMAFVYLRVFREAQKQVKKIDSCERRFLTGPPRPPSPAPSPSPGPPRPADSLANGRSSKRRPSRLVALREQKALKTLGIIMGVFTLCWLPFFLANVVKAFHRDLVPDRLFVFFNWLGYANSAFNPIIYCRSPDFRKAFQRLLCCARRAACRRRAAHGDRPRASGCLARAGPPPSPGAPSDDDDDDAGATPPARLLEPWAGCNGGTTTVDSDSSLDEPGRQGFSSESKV", "details": "even after 18 days, single i.v. injection (Zhang et al., 1999); cited from earlier work"}, "SHRs": {"test_system": "SHRs", "details": "Zhang et al., 1999; without causing bradycardia; cited from earlier work"}}, "note": "“Also recorded” adds a separate entry of the source.", "data": [{"substance": "5′-CCGCGCCCATGCCGA-3′ (phosphorothioate backbone, further chemistry not given here) [β1-AS-ODN, 15-mer antisense ODN targeted to the AUG start codon of rat β1-AR mRNA]", "values": [{"measurement": "HR response to ISO", "setting": "[1]", "value": "not significantly decreased"}, {"measurement": "dLVP-ISO dose-response curve (positive inotropic effect of ISO)", "setting": "[1]", "value": "significantly shifted downward; also recorded: significantly shifted down"}, {"measurement": "plasma Ang II levels", "setting": "plasma Ang II; day 4", "value": "not on day 4"}, {"measurement": "plasma Ang II levels", "setting": "plasma Ang II; day 10 and day 18", "value": "significantly decreased"}, {"measurement": "β2-AR density in ischemic-reperfused myocardium", "setting": "β2-AR", "value": "no change"}, {"measurement": "ischemia-reperfusion-mediated increase in β1-AR protein expression", "setting": "β1-AR protein", "value": "abolished"}, {"measurement": "plasma concentrations of ALT and AST vs control groups", "setting": "[2]; after each of three repeated injections", "value": "no significant difference"}, {"measurement": "ALT", "setting": "[2]", "value": "25.7 ± 1.1", "unit": "unit/ml"}, {"measurement": "AST", "setting": "[2]", "value": "74.0 ± 3.7", "unit": "unit/ml"}, {"measurement": "decrease in ventricular β1-AR density", "setting": "β1-ARs", "value": "30-50%"}, {"measurement": "maximum drop in blood pressure", "setting": "SHRs", "value": 38, "unit": "mmHg"}]}, {"substance": "5′-AGCCGTACCCGCGCC-3′ (phosphorothioate backbone, further chemistry not given here) [Inverted ODN, 15-mer inverted ODN control, reference compound]", "values": [{"measurement": "ischemia-reperfusion-mediated increase in β1-AR protein expression", "setting": "β1-AR protein", "value": "no effect"}, {"measurement": "ALT", "setting": "[2]", "value": "30.5 ± 3.8", "unit": "unit/ml"}, {"measurement": "AST", "setting": "[2]", "value": "83.0 ± 8.3", "unit": "unit/ml"}]}]}
